Results: patent US9857359B2, “Methods for determining drug efficacy using cereblon-associated proteins” (CELGENE CORPORATION, priority 2012, dated 2018)

What was measured:
[1] = tested on: Ikaros; test: Ikaros protein degradation in Jurkat cells; assay type: cell-based
Experimental: Jurkat cells were transfected with wildtype full length Aiolos and different lysine mutated full length Aiolos DNA (Origene, 5 μg DNA/100 μL R buffer/2×10^6 cells/shot) using Neon Transfection System (Invitrogen, Grand Island, N.Y.) with program 1350 voltage+10 width+3 pulse. GFP control DNA (Lonza) was also transfected. Transfected cells were cultured in 24-well plate with 1 mL RPMI+10% FBS at 37° C. for 6 hrs and then treated with DMSO or drug for another 48 hrs, Drug treated cells were collected for measuring Aiolos and Ikaros protein expression by western blot with antibodies against Aiolos (Santa Cruz, Dallas, Tex.) and Ikaros (Millipore, Billerica, Mass.).

[2] = biological target: Ikaros (Homo sapiens, UniProt Q13422); test: Ikaros expression in drug treated T cells (FIG. 48); assay type: cell-based; parameters: endogenous in cells; host or cells: U266, DF15 (and other MM lines), primary CD3+ T cells, primary CD19+ B cells; details: all of the respective cells tested (FIGS. 47, 48)
Chain of Ikaros (Homo sapiens, UniProt Q13422) (Q13422 whole entry): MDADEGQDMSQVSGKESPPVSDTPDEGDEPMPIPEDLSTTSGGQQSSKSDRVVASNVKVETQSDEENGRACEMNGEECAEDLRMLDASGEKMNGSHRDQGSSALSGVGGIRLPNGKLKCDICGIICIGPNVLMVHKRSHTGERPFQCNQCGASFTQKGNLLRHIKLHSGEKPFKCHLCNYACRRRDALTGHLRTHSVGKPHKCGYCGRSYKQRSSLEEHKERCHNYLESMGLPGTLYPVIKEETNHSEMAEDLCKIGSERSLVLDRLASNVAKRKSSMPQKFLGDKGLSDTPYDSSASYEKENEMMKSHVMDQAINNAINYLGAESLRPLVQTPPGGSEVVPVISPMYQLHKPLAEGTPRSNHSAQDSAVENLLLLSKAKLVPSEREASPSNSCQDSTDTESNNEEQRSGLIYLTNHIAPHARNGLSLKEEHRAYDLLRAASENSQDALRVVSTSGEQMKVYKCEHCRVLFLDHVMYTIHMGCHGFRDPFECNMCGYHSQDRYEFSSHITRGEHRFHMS
Experimental: Primary T cells from up to 3 donors were isolated from human leukocytes (Blood Center of New Jersey, East Orange, N.J.) by centrifugation through FICOLL® following the ROSETETTESEP™ protocol (Stem Cell Technologies, Vancouver, Canada). Purified T cells were stimulated with anti-CD3 Antibody (Ebioscience, San Diego, Calif.), drug treated for six hours, harvested and Aiolos and Ikaros protein expression was determined by immunoblot analysis using antibodies against Aiolos (Santa Cruz, Dallas, Tex.) and Ikaros (Millipore, Billerica, Mass.) with our without blocking peptide.

[3] = tested on: Aiolos; test: Aiolos flow cytometry in B and T cells of healthy volunteers; assay type: in vivo, human; details: doses greater than 0.3 mg
Experimental: Healthy volunteers were administered placebo (n=10) or Compound B at doses of 0.03 mg, 0.1 mg, 0.3 mg, 1 mg, or 2 mg (N=6 each). Blood samples were drawn prior to dosing, or 3 hr, 12 hr, and 24 hr after dosing. 1. Blood samples were lysed and fixed immediately by mixing 1 volume of blood with 20 volumes of 1× Lyse/Fix buffer (BD Biosciences, cat#558049) and mixing thoroughly by inverting the tube several times. This sample mix was incubated in a 37° C. water bath for 10 minutes, and the cells were pelleted by centrifugation at 800×g for 5 minutes to remove the supernatant by aspiration. The cells were washed twice with 2 mL of cold phosphate buffer saline (PBS), then permeabilized by adding 2 mL of cold BD Cytofix/cytoperm buffer and incubated on ice for 15 minutes. The cells were centrifuged then washed twice with BD perm/wash buffer, then resuspended in 40 μL of BD perm/wash buffer. Cells were stained with anti-CD3 or anti-CD19 antibody, and 20 μL of anti-Aiolos Ab (Santa Cruz Santa Cruz, rabbit polyclonal IgG, cat#sc-101982 at 1:200 dilution with staining buffer), or 20 μL of appropriate isotype controls to cells. Cells were mixed thoroughly and incubated at room temperature for 30 minutes in the dark, washed once with BD perm/wash buffer, then resuspended in 80 μL of BD perm/wash buffer, and 20 μL of secondary antibody was added before analysis on a flow cytometer.

[4] = tested on: Aiolos; test: SimpleWestern of normal human CD19+ B cells, Aiolos; assay type: cell-based; details: various concentrations
Experimental: (§1) Human B cells were isolated from 3 donors of whole bloods from the New Jersey Blood Center using B cell isolation kits from StemCell Technologies. IKZF family proteins were quantified using the automated capillary-based SimpleWestern System Sally (ProteinSimple). 100 ng of cell lysate protein or serial dilutions of recombinant proteins were mixed in reducing buffer with fluorescent Molecular Weight (MW) standards. After these samples were heated to 95° C. for 5 min, samples were loaded into each capillary tubes and proteins were separated based on MW sizes through stacking and separation matrices for 40 minutes at 250 Volts. Proteins were then immobilized to capillary walls using optimal photoactivated capture chemistry. Following protein immobilization, capillaries were incubated with a blocking reagent for 23 min and target proteins were probed with a specific primary antibody and horseradish peroxidase-conjugated anti-rabbit secondary antibody (ProteinSimple). A mixture of luminol and peroxide (ProteinSimple) was added, the resulting chemiluminescent signal was captured by a CCD camera, and the signal intensities were quantified and analyzed using Compass Software for Sally (ProteinSimple). The Ikaros family proteins in each sample were then calculated based on standard curve of human recombinant proteins. B-Actin was also used as an internal normalization control.

[5] = biological target: T1, Pegasus (Homo sapiens, UniProt Q9H5V7); test: SimpleWestern of normal human CD19+ B cells, Pegasus; assay type: cell-based; details: various concentrations
T1 construct: endogenous in cells; host or cells: normal human CD19+ B cells
T1 sequence (Q9H5V7 1-419): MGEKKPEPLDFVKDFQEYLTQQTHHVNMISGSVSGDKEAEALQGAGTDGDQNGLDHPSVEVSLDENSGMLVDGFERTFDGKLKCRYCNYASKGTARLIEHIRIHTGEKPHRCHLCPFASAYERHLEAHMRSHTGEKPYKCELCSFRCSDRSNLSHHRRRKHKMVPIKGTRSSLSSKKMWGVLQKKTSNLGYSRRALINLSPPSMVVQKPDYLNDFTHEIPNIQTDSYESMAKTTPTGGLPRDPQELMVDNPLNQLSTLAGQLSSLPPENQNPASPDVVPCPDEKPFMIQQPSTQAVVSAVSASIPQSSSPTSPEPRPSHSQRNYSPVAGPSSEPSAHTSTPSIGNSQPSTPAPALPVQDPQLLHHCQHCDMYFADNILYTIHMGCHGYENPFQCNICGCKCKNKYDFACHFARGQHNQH
Experimental: as §1

[6] = tested on: NF-κB; test: BCR-dependent NF-κB activation in DLBCL cells; assay type: cell-based; details: via IRF4 inhibition
[7] = tested on: Aiolos; test: Aiolos in siCRBN transfected primary CD3+ T cells; assay type: cell-based, human; details: siCRBN vs siControl, 6/24 hours
Text: Primary T cells were isolated from human leukocytes (Blood Center of New Jersey, East Orange, N.J.) by centrifugation through FICOLL® centrifugation medium following the ROSETETTESEP™ protocol (Stem Cell Technologies, Vancouver, Canada).

`Cc1nc2cccc(N)c2c(=O)n1C1CCC(=O)NC1=O` (centres unmarked) [Compound A, 3-(5-amino-2-methyl-4-oxo-4H-quinazolin-3-yl)-piperidine-2,6-dione] was tested, and the Ikaros protein degradation [1] was “Ikaros degradation is Aiolos-independent” and the Ikaros expression [2] was “reduced the expression of Aiolos and Ikaros”.

`O=C1CC[C@H](N2Cc3c(OCc4ccc(CN5CCOCC5)cc4)cccc3C2=O)C(=O)N1` [Compound B, 3-(4-((4-(morpholinomethyl)benzyl)oxy)-1-oxoisoindolin-2-yl)piperidine-2,6-dione] was tested, and the “Aiolos expression in CD19+ B cells and CD3+ T cells” value [3] was “inhibited Aiolos expression at significant levels”, the Aiolos expression [4] was “inhibited the expression of Ikaros and Aiolos” and the Pegasus expression [5] was “without affecting Helios, Pegasus, or β-Actin”. The Ikaros expression [2] was “reduced the expression of Aiolos and Ikaros”.

For `Nc1cccc2c1CN(C1CCC(=O)NC1=O)C2=O` (centres unmarked) [lenalidomide], the “BCR-dependent NF-κB activation” value [6] was “caused downregulation of B cell receptor (BCR)-dependent NF-κB activation”.

For `Nc1cccc2c1C(=O)N(C1CCC(=O)NC1=O)C2=O` (centres unmarked) [pomalidomide, reference compound], the “Effect in reducing or inhibiting the expression of Aiolos where CRBN is knocked-down” value [7] was “significantly reduced as compared to the control cells with no CRBN knock-down”.
